Data as given in PMC6021035, “Insights into biological activity of ureidoamides with primaquine and amino acid moieties” (Journal of Enzyme Inhibition and Medicinal Chemistry, 2018).
In brackets after ≈: the same amount, converted by molar mass. Marks after values point to notes of the source that are not given here.

Experiments:
[1] = Interaction with 1,1-diphenyl-2-picrylhydrazyl (DPPH); conditions: 100 μΜ
Procedure: To a solution of DPPH in absolute ethanol, an appropriate volume of the tested compound solution (0.1 mM final concentration) dissolved in DMSO was added. Absorbance was recorded at 517 nm after 20 and 60 min at room temperature (Lambda 20 double beam spectrophotometer, Perkin-Elmer, UK). Experiments were repeated at least in triplicate and the standard deviation of absorbance was less than 10% of the mean[10]. NDGA was used under the same experimental conditions as a reference compound.

[2] = tested on: Pseudomonas aeruginosa ATCC 9027; assay: Minimum biofilm eradication assay; format: cell-based
Procedure: (§1) We tested the susceptibility of different bacterial and yeast strains to compounds 5a–f by determining the minimum biofilm eradication concentration (MBEC). The test was performed in a sterile 96-well flat-bottom plastic tissue culture plate (TPP, Switzerland). Each well was filled with 100 µl of bacterial (10^7 CFUs/ml) or yeast (5 × 10^6 CFUs/ml) suspension. When the possibility of inhibition of yeast biofilm formation was tested, the wells were pre-treated with FBS (250 µl per well). Negative controls contained broth only. Positive controls were performed using standard antibacterial and antifungal drugs gentamycin and amphotericin B, respectively. The plates were covered and incubated aerobically for 24 h (bacteria) or 48 h (yeast) at 37 °C. Following the incubation period, each well was aspirated and washed three times with 250 µl of PBS and vigorously shaken in order to remove all non-adherent bacteria/yeast. The remaining attached cells were fixed with methanol (15 min) and the plates were left to dry overnight. The formed biofilm was stained with crystal violet (1%, 5 min). Excess stain was rinsed by placing the plate under running tap water and the plates were left to dry for 24 h. Adherent cells were resolubilized with acetic acid (33%, v/v). The optical density of each well was measured at 570 nm using a Multiscan plate reader. The MBEC value represents the lowest compound dilution at which microorganisms fail to grow.

[3] = tested on: Candida tropicalis ATCC 750; assay: Minimum biofilm eradication assay; format: cell-based; conditions: ATCC750, 48 h, read-out: MBEC
Procedure: as §1

[4] = tested on: Candida albicans ATCC 10231; assay: Minimum biofilm eradication assay; format: cell-based; conditions: ATCC10231, 48 h, read-out: MBEC
Procedure: as §1

[5] = tested on: Escherichia coli ATCC 10536; assay: Minimum biofilm eradication assay; format: cell-based
Procedure: as §1

Candida kefyr ATCC 2512 [6] = assay: Minimum biofilm eradication assay; format: cell-based; conditions: Kluyveromyces marxianus, ATCC2512, 48 h, read-out: MBEC
Procedure: as §1

[7] = tested on: Candida albicans ATCC 90028; assay: Minimum biofilm eradication assay; format: cell-based; conditions: ATCC90028, 48 h, read-out: MBEC
Procedure: as §1

[8] = tested on: Candida krusei ATCC 14243; assay: Minimum biofilm eradication assay; format: cell-based; conditions: Pichia kudriavzevii, ATCC14243, 48 h, read-out: MBEC
Procedure: as §1

[9] = tested on: Bacillus subtilis ATCC 6633; assay: MIC determination (broth micro-dilution); format: cell-based; conditions: ATCC6633
Procedure: (§2) Before analysis, compounds 5a–f were dissolved in 96% ethanol in a concentration of 2 mg/ml as stock solutions. Inoculums were prepared with fresh cultures of microbial strains, cultured on tryptic-soy agar or Sabouraud 2% (m/v) dextrose agar for 18 h (48–72 h for fungi) at 30 °C with physiological saline containing approximately […]. Inoculum density (0.5 McFarland units) was adjusted with a bio Mériex (France) densitometer. Minimum inhibitory concentration (MIC) was determined by the twofold micro-dilution method in Mu¨ller–Hinton broth for bacterial strains and RPMI 1640 + 2% m/v dextrose for fungi according to the EUCAST recommendations in a sterile 96-well flat-bottom plastic tissue culture plate. MIC was determined using a linear regression curve after incubation of compounds and reading the optical density at 570 nm using an iEMS microplate reader. […] All tests were performed in triplicate and expressed as the mean.

[10] = tested on: Bacillus cereus ATCC 11778; assay: MIC determination (broth micro-dilution); format: cell-based; conditions: ATCC11778
Procedure: as §2

[11] = tested on: Pseudomonas aeruginosa ATCC 9027; assay: MIC determination (broth micro-dilution); format: cell-based; conditions: ATCC9027
Procedure: as §2

[12] = tested on: Candida tropicalis ATCC 750; assay: MIC determination (broth micro-dilution); format: cell-based; conditions: ATCC750
Procedure: as §2

[13] = tested on: Staphylococcus aureus ATCC 25213; assay: MIC determination (broth micro-dilution); format: cell-based; conditions: ATCC25213
Procedure: as §2

[14] = tested on: Staphylococcus aureus ATCC 25923; assay: MIC determination (broth micro-dilution); format: cell-based; conditions: ATCC25923
Procedure: as §2

[15] = tested on: Escherichia coli ATCC 8739; assay: MIC determination (broth micro-dilution); format: cell-based; conditions: ATCC8739
Procedure: as §2

[16] = tested on: Issatchenkia orientalis Kudrjanzev ATCC 6258; assay: MIC determination (broth micro-dilution); format: cell-based; conditions: Pichia kudriavzevii, ATCC6258
Procedure: as §2

[17] = tested on: Aspergillus niger ATCC 16404; assay: MIC determination (broth micro-dilution); format: cell-based; conditions: ATCC16404
Procedure: as §2

[18] = tested on: Candida albicans ATCC 10231; assay: MIC determination (broth micro-dilution); format: cell-based; conditions: ATCC10231
Procedure: as §2

[19] = tested on: Escherichia coli ATCC 10536; assay: MIC determination (broth micro-dilution); format: cell-based; conditions: ATCC10536
Procedure: as §2

[20] = tested on: Pseudomonas aeruginosa ATCC 27853; assay: MIC determination (broth micro-dilution); format: cell-based; conditions: ATCC27853
Procedure: as §2

[21] = tested on: Kocuria rhizophila ATCC 9341; assay: MIC determination (broth micro-dilution); format: cell-based; conditions: ATCC9341
Procedure: as §2

[22] = tested on: Candida parapsylosis ATCC 22019; assay: MIC determination (broth micro-dilution); format: cell-based; conditions: ATCC22019
Procedure: as §2

[23] = tested on: Enterococcus faecalis ATCC 29212; assay: MIC determination (broth micro-dilution); format: cell-based; conditions: ATCC29212
Procedure: as §2

Candida kefyr ATCC 2512 [24] = assay: MIC determination (broth micro-dilution); format: cell-based; conditions: Kluyveromyces marxianus, ATCC2512
Procedure: as §2

[25] = tested on: Candida albicans ATCC 90028; assay: MIC determination (broth micro-dilution); format: cell-based; conditions: ATCC90028
Procedure: as §2

[26] = tested on: Enterococcus hyrae ATCC 8043; assay: MIC determination (broth micro-dilution); format: cell-based; conditions: ATCC8043
Procedure: as §2

[27] = tested on: Burkholderia caepacia ATCC 25416; assay: MIC determination (broth micro-dilution); format: cell-based; conditions: ATCC25416
Procedure: as §2

[28] = tested on: Candida krusei ATCC 14243; assay: MIC determination (broth micro-dilution); format: cell-based; conditions: Pichia kudriavzevii, ATCC14243
Procedure: as §2

[29] = tested on: Staphylococcus aureus ATCC 6538; assay: MIC determination (broth micro-dilution); format: cell-based; conditions: ATCC6538
Procedure: as §2

SMILES	DPPH-reducing ability 20 min [1]	DPPH-reducing ability 60 min [1]	MBEC [2] [µg/mL]	minimal effective concentration [3] [µg/mL]	minimal effective concentration [4] [µg/mL]	MBEC [5] [µg/mL]	minimal effective concentration (Candida kefyr ATCC 2512 [6]) [µg/mL]	minimal effective concentration [7] [µg/mL]	minimal effective concentration [8] [µg/mL]	MIC [9] [µg/mL]	MIC [10] [µg/mL]	MIC [11] [µg/mL]	MIC [12] [µg/mL]	MIC [13] [µg/mL]	MIC [14] [µg/mL]	MIC [15] [µg/mL]	MIC [16] [µg/mL]	MIC [17] [µg/mL]	MIC [18] [µg/mL]	MIC [19] [µg/mL]	also measured
COc1cc(NC(C)CCCNC(=O)NC(C(=O)NC(c2ccccc2)c2ccc(Cl)cc2)c2ccc(Cl)cc2)c2ncccc2c1 (stereo not drawn) [Compound 5e, 2–(4-chlorophenyl)-N-[(4-chlorophenyl)(phenyl)methyl]-2-[({4-[(6-methoxyquinolin-8-yl)amino]pentyl}carbamoyl)amino]acetamide]	1^b %	1^b %	>100	> 100	25	50	6.25	25	> 100	> 100	> 100	> 100	> 100	> 100	> 100	60 (≈ 89.5 µM)	> 100	> 100	> 100	45 (≈ 67.1 µM)	MIC [20]: > 100 µg/mL; MIC [21]: > 100 µg/mL; MIC [22]: > 100 µg/mL; MIC [23]: > 100 µg/mL; MIC (Candida kefyr ATCC 2512 [24]): > 100 µg/mL; MIC [25]: > 100 µg/mL; MIC [26]: > 100 µg/mL; MIC [27]: > 100 µg/mL; MIC [28]: > 100 µg/mL; MIC [29]: > 100 µg/mL
COc1ccc(C(=NNC(=O)C(NC(=O)NCCCC(C)Nc2cc(OC)cc3cccnc23)c2ccc(Cl)cc2)c2ccccc2)cc1 (stereo not drawn) [Compound 5f, 3-[(4-chlorophenyl)({N'-[(4-methoxyphenyl)(phenyl)methylidene]hydrazinecarbonyl})methyl]-1-{4-[(6-methoxyquinolin-8-yl)amino]pentyl}urea]	2^b %	2^b %	>100	> 100	25	12.5	6.25	25	> 100	> 100	> 100	> 100	> 100	> 100	> 100	> 100	> 100	> 100	> 100	> 100	MIC [20]: > 100 µg/mL; MIC [21]: > 100 µg/mL; MIC [22]: > 100 µg/mL; MIC [23]: > 100 µg/mL; MIC (Candida kefyr ATCC 2512 [24]): > 100 µg/mL; MIC [25]: > 100 µg/mL; MIC [26]: > 100 µg/mL; MIC [27]: > 100 µg/mL; MIC [28]: > 100 µg/mL; MIC [29]: > 100 µg/mL
